The source made the active and inactive calls. The rule behind the calls is not given here.
What was measured:
Eubacterium sp. = assay: Antibacterial activity against Eubacterium sp. HM-178; type: functional
[1] = Drug uptake in blood of ICR mouse assessed as drug absorption from intestines at 30 mg/kg, po measured for 1 to 24 hrs by UPLC analysis; type: ADME, organism-based; conditions: in vivo, time 1-24 hrs
Escherichia coli = assay: Antibacterial activity against Escherichia coli ATCC 25922; type: functional
Bacteria [2] = assay: Binding affinity to bacterial CspC assessed as dissociation constant by MST assay
Enterococcus faecalis = assay: Antibacterial activity against Enterococcus faecalis ATCC 29212; type: functional
[3] = Binding affinity to bacterial cwID assessed as dissociation constant by MST assay; parameters: species or system Bacteria
[4] = Cmax in ICR mouse at 30 mg/kg, po measured for 1 to 24 hrs by UPLC analysis; type: ADME, organism-based; conditions: in vivo, time 1-24 hrs
Pseudomonas aeruginosa = assay: Antibacterial activity against Pseudomonas aeruginosa ATCC 27853; type: functional
Acinetobacter baumannii = assay: Antibacterial activity against Acinetobacter baumannii ATCC 17961; type: functional
Clostridioides difficile [5] = assay: Antibacterial activity against Clostridium difficile ATTC43255 assessed as inhibition of vegetative cells in presence of vancomycin; type: functional, organism-based
Clostridioides difficile [6] = assay: Antibacterial activity against Clostridium difficile BAA1870 assessed as spore germination inhibition; type: functional, organism-based
Bacteria [7] = assay: Binding affinity to bacterial CspA assessed as dissociation constant by MST assay
Clostridioides difficile [8] = assay: Antibacterial activity against Clostridium difficile ATTC43255 assessed as inhibition of vegetative cells; type: functional, organism-based
Bacteroides fragilis = assay: Antibacterial activity against Bacteroides fragilis HM-709; type: functional
[9] = Drug concentration in brain of Golden Syrian hamster at 5 mg/kg, po bid measured after 8 hrs; type: ADME, organism-based, Mesocricetus auratus; conditions: read-out: Ct
[10] = Cytotoxicity against human HepG2 cells incubated for 24 hrs by XTT assay; type: toxicity, cell-based; conditions: read-out: LD50
[11] = Drug concentration in liver of Golden Syrian hamster at 5 mg/kg, po bid measured after 8 hrs; type: ADME, organism-based, Mesocricetus auratus; conditions: read-out: Ct
[12] = test system: Limosilactobacillus reuteri; assay: Antibacterial activity against vancomycin-susceptible Lactobacillus reuteri HM-102 clinical isolate; type: functional
[13] = Binding affinity to bacterial pro-SleC assessed as dissociation constant by MST assay; parameters: species or system Bacteria
Bacteria [14] = assay: Binding affinity to bacterial GerS assessed as dissociation constant by MST assay
Klebsiella aerogenes = assay: Antibacterial activity against Enterobacter aerogenes ATCC 35029; type: functional
Staphylococcus aureus [15] = assay: Inhibition of Staphylococcus aureus COL PBP1 at 5 ug/ml measured for 24 hrs by absorbance based assay; conditions: dose 5.0 µg/ml
[16] = Drug concentration in kidney of Golden Syrian hamster at 5 mg/kg, po bid measured after 8 hrs; type: ADME, organism-based, Mesocricetus auratus; conditions: read-out: Ct
Veillonella = assay: Antibacterial activity against Veillonella sp. HM-49; type: functional
[17] = test system: Staphylococcus haemolyticus; assay: Antibacterial activity against Staphylococcus haemolyticus ATCC 29970; type: functional
Bacteria [18] = assay: Binding affinity to bacterial prepro-SleC assessed as dissociation constant by MST assay
[19] = Drug concentration in feces of ICR mouse at 30 mg/kg, po measured after 24 hrs by UPLC analysis; type: ADME, organism-based; conditions: in vivo
Clostridioides difficile [20] = assay: Antibacterial activity against Clostridium difficile ATTC43255 assessed as spore germination inhibition at 45 uM incubated for 60 mins by spectrometry relative to control; type: functional; conditions: ATTC43255, 1 h
[21] = Binding affinity to bacterial CspB assessed as dissociation constant by MST assay; parameters: species or system Bacteria
[22] = Drug concentration in feces of ICR mouse at 30 mg/kg, po measured after 8 hrs by UPLC analysis; type: ADME, organism-based; conditions: faeces, read-out: Ct
Clostridioides difficile [23] = assay: Post-antibiotic effect in Clostridium difficile ATTC43255 assessed as spore germination inhibition at 60 uM incubated for 1 hr followed by fresh medium replacement without compound measured up to 8 hrs; type: functional, organism-based
[24] = Binding affinity to bacterial SleC assessed as dissociation constant by MST assay; parameters: species or system Bacteria
Clostridioides difficile [25] = assay: Antibacterial activity against Clostridium difficile ATTC43255 assessed as spore germination inhibition incubated for 60 mins by spectrometry; type: functional, organism-based
Clostridioides difficile [26] = assay: Antibacterial activity against metronidazole-resistant Clostridium difficile […] clinical isolate; type: functional
Klebsiella pneumoniae = assay: Antibacterial activity against Klebsiella pneumoniae ATCC 700603; type: functional
Clostridioides difficile [27] = assay: Inhibition of spore cortex degradation in Clostridium difficile assessed as greenish-blue spheres at 50 uM by Wirtz-Conklin staining based analysis; type: functional, organism-based
[28] = AUC (0 to 24 hrs) in ICR mouse at 30 mg/kg, po measured for 1 to 24 hrs by UPLC analysis; type: ADME, organism-based; conditions: in vivo, time 1-24 hrs
Bacillus subtilis = assay: Inhibition of Bacillus subtilis sacculi-derived SleC
Staphylococcus aureus [29] = assay: Inhibition of Staphylococcus aureus COL PBP2 at 5 ug/ml measured for 24 hrs by absorbance based assay; conditions: dose 5.0 µg/ml
[30] = Cmax in feces of Golden Syrian hamster at 5 mg/kg, po bid measured for 5 days; type: ADME, organism-based, Mesocricetus auratus; conditions: faeces, time 5 day
[31] = Terminal half life in ICR mouse at 30 mg/kg, po measured for 1 to 24 hrs by UPLC analysis; type: ADME, organism-based; conditions: in vivo, time 1-24 hrs, read-out: beta t1/2 (converted)

For `Cl.NCc1ccc(-c2nc(-c3ccnc(Oc4ccc(C(F)(F)F)cc4)c3)no2)cc1`, the MIC (Eubacterium sp.) was 16 µg/mL, the Drug uptake [1] was “Active” and the MIC (Escherichia coli) was over 128 µg/mL. For the same molecule, the Activity (Bacteria [2]) was “inactive”, the MIC (Enterococcus faecalis) was 4 µg/mL and the Kd [3] was 54 µM. It also gave a Cmax [4] of 1440 ng/mL, an MIC (Pseudomonas aeruginosa) of over 128 µg/mL and an MIC (Acinetobacter baumannii) of over 128 µg/mL. For the same molecule, the IC50 (Clostridioides difficile [5]) was 22.7 µM, the IC50 (Clostridioides difficile [6]) was 13 µM and the Activity (Bacteria [7]) was “inactive”. The IC50 (Clostridioides difficile [8]) was 46.2 µM, the MIC (Bacteroides fragilis) was 32 µg/mL and the concentration at 8 h [9] was 15000 ng/g. It also gave a CC50 at 24 h [10] of 51 µg/mL, a concentration at 8 h [11] of 5600 ng/g and an MIC [12] of 32 µg/mL. The Kd [13] was 16 µM, the Activity (Bacteria [14]) was “inactive” and the MIC (Klebsiella aerogenes) was over 128 µg/mL. For the same molecule, the inhibition (Staphylococcus aureus [15]) was “Active”, the concentration at 8 h [16] was 56000 ng/g and the MIC (Veillonella) was over 128 µg/mL. For the same molecule, the MIC [17] was 8 µg/mL, the Activity (Bacteria [18]) was “inactive” and the Ct [19] was “Below_limit_of_detection”. It also gave an inhibition at 45 µM (Clostridioides difficile [20]) of 84%, a Kd [21] of 8 µM and a concentration at 8 h [22] of 11000 ng/g. The inhibition (Clostridioides difficile [23]) was “Active”, the Kd [24] was 12 µM and the inhibition (Clostridioides difficile [25]) was “Dose-dependent-effect”. For the same molecule, the IC50 (Clostridioides difficile [25]; ATTC43255, 1 h) was 14 µM, the MIC (Clostridioides difficile [26]) was 16 µg/mL and the MIC (Klebsiella pneumoniae) was over 128 µg/mL. For the same molecule, the inhibition (Clostridioides difficile [27]) was “Active”, the AUC(0-t) [28] was 17000 ng·h/mL and the inhibition (Bacillus subtilis) was “Active”. For the same molecule, the inhibition (Staphylococcus aureus [29]) was “Active”, the Cmax [30] was about 4000 ng/g and the half-life [31] was 6.3 h.

— ChEMBL document CHEMBL6134901 (J Med Chem, 2025)
